In data set [1] the target is Mitogen-activated protein kinase kinase kinase kinase 1 (Homo sapiens, UniProt Q92918). The data set is described as follows: Inhibition of HPK1 in human T cells assessed as increase in IL-2 secretion measured after 24 hrs by ELISA method. The class given is cell-based, T-cell.
Data set [2] in a line: Oral bioavailability in in overnight fasted mouse at 10 mg/kg. As to conditions: in vivo. It is filed as ADME, organism-based.
Data set [3] is described as follows: Plasma Clearance in overnight fasted rat at 1 mg/kg, iv. The class given is ADME, organism-based.
Data set [4] deals with Mitogen-activated protein kinase kinase kinase kinase 3 (Homo sapiens, UniProt Q8IVH8). The data set is described as follows: Inhibition of GST-tagged recombinant human MAP4K3 (1 to 380 residues) extracted from Baculovirus infected Sf9 insect cells preincubated for 10 min followed by fluorescein PKC and ATP addition and measured after 90 min by Envision2104 Multilabel Reader analysis.
Mitogen-activated protein kinase kinase kinase kinase 3, sequence (Q8IVH8 whole entry, the tested form may be a part): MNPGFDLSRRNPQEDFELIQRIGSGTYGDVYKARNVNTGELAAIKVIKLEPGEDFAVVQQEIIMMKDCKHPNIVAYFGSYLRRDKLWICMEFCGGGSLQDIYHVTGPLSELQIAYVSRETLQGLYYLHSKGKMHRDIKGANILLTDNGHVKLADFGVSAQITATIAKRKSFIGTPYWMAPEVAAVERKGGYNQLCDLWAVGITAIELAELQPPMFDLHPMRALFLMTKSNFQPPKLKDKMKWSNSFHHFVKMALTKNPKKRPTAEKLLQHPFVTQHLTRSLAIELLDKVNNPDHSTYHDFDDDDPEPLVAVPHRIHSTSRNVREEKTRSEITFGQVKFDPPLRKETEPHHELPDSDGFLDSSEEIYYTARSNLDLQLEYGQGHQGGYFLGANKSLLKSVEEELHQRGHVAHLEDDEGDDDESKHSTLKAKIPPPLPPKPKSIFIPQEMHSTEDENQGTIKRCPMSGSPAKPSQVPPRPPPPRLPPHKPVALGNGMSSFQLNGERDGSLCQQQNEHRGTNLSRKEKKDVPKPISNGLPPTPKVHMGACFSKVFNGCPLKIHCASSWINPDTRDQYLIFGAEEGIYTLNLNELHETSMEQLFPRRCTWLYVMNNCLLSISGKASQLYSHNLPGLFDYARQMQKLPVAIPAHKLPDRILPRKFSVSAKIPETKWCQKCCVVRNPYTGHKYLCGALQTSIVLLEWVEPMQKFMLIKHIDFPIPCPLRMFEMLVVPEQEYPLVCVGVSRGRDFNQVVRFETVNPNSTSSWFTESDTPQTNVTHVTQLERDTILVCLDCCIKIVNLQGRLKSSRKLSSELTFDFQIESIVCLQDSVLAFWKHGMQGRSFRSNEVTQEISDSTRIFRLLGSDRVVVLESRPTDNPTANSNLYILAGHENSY

For data set [5], the target named is Mitogen-activated protein kinase kinase kinase kinase 4 (Homo sapiens, UniProt O95819). As to the kind of experiment: Inhibition of N-terminal GST-tagged recombinant human MAP4K4 (1 to 328 residues) expressed in Sf21 insect cells preincubated for 10 min followed by fluorescein PKC and ATP addition and measured after 90 min by Envision2104 Multilabel Reader analysis.
Mitogen-activated protein kinase kinase kinase kinase 4, sequence (O95819 whole entry, the tested form may be a part): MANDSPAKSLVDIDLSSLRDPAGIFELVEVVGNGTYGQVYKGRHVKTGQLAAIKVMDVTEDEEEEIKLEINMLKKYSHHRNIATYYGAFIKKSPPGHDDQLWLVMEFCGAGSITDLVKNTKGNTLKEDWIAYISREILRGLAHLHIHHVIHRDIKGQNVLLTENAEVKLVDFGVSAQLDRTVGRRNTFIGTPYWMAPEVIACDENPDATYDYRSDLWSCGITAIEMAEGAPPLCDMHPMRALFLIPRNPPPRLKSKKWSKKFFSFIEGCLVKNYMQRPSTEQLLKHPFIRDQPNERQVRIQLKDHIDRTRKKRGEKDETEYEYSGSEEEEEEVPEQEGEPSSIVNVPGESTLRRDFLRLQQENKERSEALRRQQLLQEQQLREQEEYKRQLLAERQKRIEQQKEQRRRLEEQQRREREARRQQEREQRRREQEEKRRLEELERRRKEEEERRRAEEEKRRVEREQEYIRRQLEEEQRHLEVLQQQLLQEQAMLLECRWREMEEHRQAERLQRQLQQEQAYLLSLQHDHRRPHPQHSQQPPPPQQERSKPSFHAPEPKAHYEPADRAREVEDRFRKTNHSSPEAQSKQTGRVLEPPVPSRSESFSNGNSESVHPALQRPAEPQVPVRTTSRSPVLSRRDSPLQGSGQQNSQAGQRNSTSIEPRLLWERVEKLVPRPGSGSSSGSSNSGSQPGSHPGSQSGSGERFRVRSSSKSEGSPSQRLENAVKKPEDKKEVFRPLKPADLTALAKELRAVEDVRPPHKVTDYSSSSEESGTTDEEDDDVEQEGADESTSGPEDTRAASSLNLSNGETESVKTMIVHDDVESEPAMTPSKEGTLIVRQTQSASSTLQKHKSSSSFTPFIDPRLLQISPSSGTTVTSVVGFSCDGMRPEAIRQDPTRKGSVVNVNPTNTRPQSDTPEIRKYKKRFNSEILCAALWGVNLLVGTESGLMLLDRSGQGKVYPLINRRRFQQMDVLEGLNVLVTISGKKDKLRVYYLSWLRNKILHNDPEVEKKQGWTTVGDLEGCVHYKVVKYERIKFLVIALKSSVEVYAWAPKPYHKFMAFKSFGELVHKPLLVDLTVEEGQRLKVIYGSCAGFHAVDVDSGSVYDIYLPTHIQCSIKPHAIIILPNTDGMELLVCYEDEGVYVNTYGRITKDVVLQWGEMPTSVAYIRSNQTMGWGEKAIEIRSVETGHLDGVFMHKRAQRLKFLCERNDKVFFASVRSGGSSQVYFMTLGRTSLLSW

In data set [6] the target is Mitogen-activated protein kinase 3 (Homo sapiens) (UniProt P27361). As to the kind of experiment: Inhibition of ERK1 (unknown origin) at 1000 nM incubated for 1 hrs by active site-directed competition binding assay relative to control.
Mitogen-activated protein kinase 3 (Homo sapiens), sequence (P27361 whole entry): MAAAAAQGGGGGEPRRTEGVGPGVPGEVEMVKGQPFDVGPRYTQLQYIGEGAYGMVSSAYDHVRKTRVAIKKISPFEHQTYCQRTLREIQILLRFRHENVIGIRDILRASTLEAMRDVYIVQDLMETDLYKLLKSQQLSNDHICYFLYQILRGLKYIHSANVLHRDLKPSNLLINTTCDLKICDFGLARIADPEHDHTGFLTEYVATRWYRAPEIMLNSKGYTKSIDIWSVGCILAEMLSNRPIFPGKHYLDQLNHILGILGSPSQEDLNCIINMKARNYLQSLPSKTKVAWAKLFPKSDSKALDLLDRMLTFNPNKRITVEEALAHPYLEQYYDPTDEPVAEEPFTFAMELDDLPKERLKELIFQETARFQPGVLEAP
Data set [7] has as its target Mitogen-activated protein kinase 9 (Homo sapiens) (UniProt P45984). As to the kind of experiment: Inhibition of JNK2 (unknown origin) at 1000 nM incubated for 1 hrs by active site-directed competition binding assay relative to control.
Data set [8] addresses Mitogen-activated protein kinase 14 (Homo sapiens) (UniProt Q16539). The data set is described as follows: Inhibition of P38alpha (unknown origin) at 1000 nM incubated for 1 hrs by active site-directed competition binding assay relative to control.
In data set [9] the target is Mitogen-activated protein kinase 13 (Homo sapiens) (UniProt O15264). As to the kind of experiment: Inhibition of P38delta (unknown origin) at 1000 nM incubated for 1 hrs by active site-directed competition binding assay relative to control.
Mitogen-activated protein kinase 13 (Homo sapiens), sequence (O15264 whole entry): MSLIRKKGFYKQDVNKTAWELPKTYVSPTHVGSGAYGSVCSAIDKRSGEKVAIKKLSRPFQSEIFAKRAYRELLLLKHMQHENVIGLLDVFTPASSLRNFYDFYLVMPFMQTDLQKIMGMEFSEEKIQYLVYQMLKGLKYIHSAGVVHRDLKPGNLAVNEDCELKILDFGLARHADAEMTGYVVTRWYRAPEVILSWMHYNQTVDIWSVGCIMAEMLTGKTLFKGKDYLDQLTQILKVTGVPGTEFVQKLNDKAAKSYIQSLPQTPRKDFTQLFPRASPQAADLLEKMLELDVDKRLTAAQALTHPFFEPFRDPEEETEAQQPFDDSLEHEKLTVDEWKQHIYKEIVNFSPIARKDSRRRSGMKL
Data set [10] addresses RAF proto-oncogene serine/threonine-protein kinase (Homo sapiens) (UniProt P04049). The data set is described as follows: Inhibition of RAF1 (unknown origin) at 1000 nM incubated for 1 hrs by active site-directed competition binding assay relative to control.
Data set [11] deals with Tyrosine-protein kinase ZAP-70 (Homo sapiens) (UniProt P43403). As to the kind of experiment: Inhibition of ZAP70 (unknown origin) at 1000 nM incubated for 1 hrs by active site-directed competition binding assay relative to control.
Tyrosine-protein kinase ZAP-70 (Homo sapiens), sequence (P43403 whole entry): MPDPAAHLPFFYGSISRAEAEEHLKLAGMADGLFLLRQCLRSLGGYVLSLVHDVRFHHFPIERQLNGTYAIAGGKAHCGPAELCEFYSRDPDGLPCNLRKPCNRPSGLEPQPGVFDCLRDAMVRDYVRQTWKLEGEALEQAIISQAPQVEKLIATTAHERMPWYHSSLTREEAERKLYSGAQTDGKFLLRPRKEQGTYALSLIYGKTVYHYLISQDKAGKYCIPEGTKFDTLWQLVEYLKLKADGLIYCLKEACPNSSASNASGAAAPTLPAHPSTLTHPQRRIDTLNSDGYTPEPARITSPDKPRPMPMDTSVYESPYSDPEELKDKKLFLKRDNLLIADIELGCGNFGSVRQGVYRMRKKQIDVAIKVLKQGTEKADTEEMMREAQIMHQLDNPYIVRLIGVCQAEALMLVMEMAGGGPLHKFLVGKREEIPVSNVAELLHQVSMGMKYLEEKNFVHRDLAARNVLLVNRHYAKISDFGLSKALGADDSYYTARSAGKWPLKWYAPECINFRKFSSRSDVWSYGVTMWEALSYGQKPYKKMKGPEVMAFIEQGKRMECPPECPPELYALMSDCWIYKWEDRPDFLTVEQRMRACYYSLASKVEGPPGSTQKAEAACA
For data set [12], the system named is CT26. As to the kind of experiment: Antitumor activity against mouse CT26 cells allografted in female BALB/c mouse assessed as tumor growth inhibition at 30 mg/kg, administered orally twice daily for 2 weeks. The class given is functional. The settings on record: CT26, 336 h, route po, read-out: TGI.
The nature of data set [13]: Toxicity against BALB/c mouse allografted with mouse CT26 cells assessed as body weight loss at 30 mg/kg, administered orally twice daily for 2 weeks. The settings on record: in vivo, po, 336 h. It is filed as organism-based.
Data set [14] is described as follows: Toxicity in CD-1 mouse assessed as body weight loss at 1000 mg/kg, po. It is filed as organism-based. The settings on record: in vivo.

These results are taken from ChEMBL document CHEMBL6092149, “Discovery of 1(2H)-phthalazinone and 1(2H)-isoquinolinone derivatives as potent hematopoietic progenitor kinase 1 (HPK1) inhibitors” (Eur J Med Chem, 2024).

Molecules are shown by their SMILES.

Mitogen-activated protein kinase 14 (Homo sapiens), sequence (Q16539 whole entry): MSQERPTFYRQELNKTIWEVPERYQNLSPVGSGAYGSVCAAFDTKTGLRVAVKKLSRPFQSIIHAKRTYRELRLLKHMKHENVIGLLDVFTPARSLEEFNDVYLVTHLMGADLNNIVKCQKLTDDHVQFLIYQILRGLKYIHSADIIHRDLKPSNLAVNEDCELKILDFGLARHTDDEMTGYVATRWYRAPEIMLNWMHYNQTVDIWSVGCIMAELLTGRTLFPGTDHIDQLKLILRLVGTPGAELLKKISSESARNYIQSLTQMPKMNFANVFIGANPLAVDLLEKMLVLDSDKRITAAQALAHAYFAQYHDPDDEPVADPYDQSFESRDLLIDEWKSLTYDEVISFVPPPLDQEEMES
Mitogen-activated protein kinase 9 (Homo sapiens), sequence (P45984 whole entry, looked up): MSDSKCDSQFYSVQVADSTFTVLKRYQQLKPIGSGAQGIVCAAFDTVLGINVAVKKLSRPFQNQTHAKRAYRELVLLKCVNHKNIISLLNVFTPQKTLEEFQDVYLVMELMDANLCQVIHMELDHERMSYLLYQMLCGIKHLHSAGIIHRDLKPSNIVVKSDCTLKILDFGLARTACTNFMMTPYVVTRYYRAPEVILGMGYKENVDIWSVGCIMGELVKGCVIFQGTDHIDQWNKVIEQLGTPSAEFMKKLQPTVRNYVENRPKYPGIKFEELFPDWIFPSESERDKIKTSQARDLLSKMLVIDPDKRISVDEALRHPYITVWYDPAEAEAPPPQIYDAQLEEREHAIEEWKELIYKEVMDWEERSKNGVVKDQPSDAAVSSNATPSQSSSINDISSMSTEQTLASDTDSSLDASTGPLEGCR
RAF proto-oncogene serine/threonine-protein kinase (Homo sapiens), sequence (P04049 whole entry): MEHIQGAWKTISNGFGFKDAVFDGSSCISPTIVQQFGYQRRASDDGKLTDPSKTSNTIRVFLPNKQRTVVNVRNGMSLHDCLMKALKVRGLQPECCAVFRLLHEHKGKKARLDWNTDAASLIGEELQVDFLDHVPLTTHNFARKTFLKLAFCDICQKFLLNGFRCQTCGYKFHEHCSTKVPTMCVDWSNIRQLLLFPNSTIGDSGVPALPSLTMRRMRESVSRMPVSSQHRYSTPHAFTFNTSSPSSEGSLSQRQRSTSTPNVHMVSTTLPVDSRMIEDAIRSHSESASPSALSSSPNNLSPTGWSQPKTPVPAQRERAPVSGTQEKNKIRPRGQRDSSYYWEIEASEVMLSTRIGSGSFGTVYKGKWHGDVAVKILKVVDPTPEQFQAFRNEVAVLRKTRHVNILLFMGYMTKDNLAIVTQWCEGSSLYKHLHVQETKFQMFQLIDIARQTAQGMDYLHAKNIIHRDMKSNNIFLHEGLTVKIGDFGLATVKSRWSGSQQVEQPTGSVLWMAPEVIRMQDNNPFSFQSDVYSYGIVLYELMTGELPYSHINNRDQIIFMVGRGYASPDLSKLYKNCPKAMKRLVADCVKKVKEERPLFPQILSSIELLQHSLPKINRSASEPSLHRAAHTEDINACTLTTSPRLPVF

Consider `O=c1[nH]ccc2c(-c3cnc4cc(F)ccn34)ccc(Nc3ccc(C4CCOCC4)c(CN4CC[C@H](F)C4)n3)c12`, for which the half-maximal effective concentration (EC50) in data set [1] was 108 nM. The Activity entry in data set [1] (T-cell) was “Dose-dependent-effect”; in data set [13], “Non-toxic”; in data set [14], “Non-toxic”. Moreover, the bioavailability in data set [2] came out at 116%. The same molecule showed a clearance in data set [3] of 67 mL/min/kg. Moreover, the IC50 came out at 85 nM in data set [4] and 665 nM in data set [5]. Moreover, the inhibition in [6] was determined as 56%; in data set [7], 86%; in data set [8], 94%; in data set [9], 62%; in [10], 85%; in [11], 90%. Moreover, the inhibition in vivo at 30 mg/kg in data set [12] was 42%.
